Several values for one entry are separate records, joined by “and”; a condition that tells them apart may be missing. Equal values may be shown once.
How the values were obtained:
Format in all cases: cell-based, human
AGS cells [1] = test: SA-β-Gal histochemical staining; details: Fig. S4A
Description: SA-β-Gal activity was measured following two different approaches. (i) AGS, MKN45 and PANC1 cells (5 × 10^4) were seeded in 24-multiwell dishes and incubated overnight. […] For flow cytometry cell senescence detection, cells were tripsinized, fixed for 15 min with PFA 4% and stained with the CellEvent Senescense Green Flow Cytometry Assay Kit (C10840, Invitrogen) according to manufacturer’s instructions. CellEvent Senescense Green Probe was used at a 1:500 dilution and fluorescence was detected using the filter (Ex488nm/Em530/30) BL1 with a 4-laser Attune NxT Acoustic Cytometer (Thermo Fisher Scientific). […] After 3 h, the treatments were removed, new supplemented medium was added, and cells were incubated for an additional 24 h. Finally, SA-β-Gal staining was performed using the Senescence Cells Histochemical Staining Kit (CS0030-1KT) according to the manufacturer’s instructions.

PANC1 cells [2] = test: ROS detection by confocal microscopy (DHE, MitoSox); details: PANC1, 1 h treatment; H2O2 200 µM, CDDP 10 µM, I5 20 µM, I6 20 µM
Description: Tumor cells were seeded at a density of 3 × 10^5 cells in 15 µm 8-well IBIDI plates and incubated overnight. […] Subsequently, cells were stained with 10 μM of dihydroethidium (DHE, cytosolic O2^·- probe, Sigma-Aldrich) or with 5 μM of Mitosox (mitochondrial O2^·- probe, Sigma-Aldrich) for 15–30 min[79] and then visualized on a confocal microscope (Confocal LSM 710 Zeiss, Biomedical Research Institute Alberto Sols, IIBm-CSIC-UAM, Madrid, Spain). The image analysis was realized using the software program Image J.

AGS cells [3] = test: Ratio GSH/GSSG, colorimetric kit; details: AGS, C+ (positive control), relative to Control = 1
Description: (§1) GSH and GSSG levels were determined in AGS and PANC1 cells after 3 and 24 h of treatment with the compounds (using H2O2 as a positive control) with the Glutathione Colorimetric Detection Kit (ThermoFisher) following the manufacturer’s instructions. Thirty minutes after adding the Colorimetric Detection Reagent and the Reaction Mixture, the absorbance was read at 405 nm. A standard curve was generated with each assay to interpolate the sample results. To measure GSSG, standards and samples must be diluted with the Sample Diluent containing 2-vinylpyridine.

PANC1 cells [4] = test: Ratio GSH/GSSG, colorimetric kit; details: PANC1, C+ (positive control), relative to Control = 1
Description: as §1

For `OO` [H2O2, reference compound], the “Fold change % Senescence” value (AGS cells [1]) was 52.81% and 54.43% and 58.54%, the “DHE fluorescence intensity (per cell), cytosolic O2•−” value (PANC1 cells [2]) was 174.023 and 151.84 and 151.685 and 148.486 and 115.72 and 133.113 and the GSH/GSSG (AGS cells [3]) was 0.8614 and 0.8667 and 0.9484. The GSH/GSSG (PANC1 cells [4]) was 0.5945 and 0.659 and 0.8185.

— paper PMC10959927, “Platinum iodido drugs show potential anti-tumor activity, affecting cancer cell metabolism and inducing ROS and senescence in gastrointestinal cancer cells” (Communications Biology, 2024)
